Measurements as given in PubChem BioAssay AID330 (DTP/NCI, 2004).
Where “and” joins values, the source holds several entries; their conditions need not be identical. Equal values may be shown once. Toxic doses and inconclusive results are not listed. The calls were made as follows: active = survival T/C of 150% or more; inactive = T/C below 125% in these data. Square brackets hold non-standard residues; d marks the D form. Peptide text beside a SMILES is read from it. * marks the point of attachment. Cbz = O=C(OCc1ccccc1)*; Dha = C=C(N)C(=O)O

Tested on: P388 leukemia ip, CD2F1 mice, survival T/C
Experiment: NCI In Vivo Anticancer Drug Screen. Data for tumor model P388 Leukemia (intraperitoneal) in CD2F1 (CDF1) mice
Details: endpoint: median survival time, higher = longer survival
Procedure, shortened: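 Mice carrying the transplanted tumor received test compound or vehicle. Survival was recorded in each group, and the value is the treated-group measurement divided by that of the vehicle-treated control group.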

[1] = dose: 60.0 mg/kg/injection, schedule: Q01DX005 (ip), vehicle: saline with Tween-80
[2] = dose: 120.0 mg/kg/injection, schedule: Q01DX005 (ip), vehicle: saline with Tween-80
[3] = dose: 6.25 mg/kg/injection, schedule: Q01DX009 (ip), vehicle: distilled water + Tween-80
[4] = dose: 12.5 mg/kg/injection, schedule: Q01DX009 (ip), vehicle: distilled water + Tween-80
[5] = dose: 25.0 mg/kg/injection, schedule: Q01DX009 (ip), vehicle: distilled water + Tween-80
[6] = dose: 50.0 mg/kg/injection, schedule: Q01DX009 (ip), vehicle: distilled water + Tween-80
[7] = dose: 100.0 mg/kg/injection, schedule: Q01DX009 (ip), vehicle: distilled water + Tween-80
[8] = dose: 200.0 mg/kg/injection, schedule: Q01DX009 (ip), vehicle: distilled water + Tween-80
[9] = dose: 25.0 mg/kg/injection, schedule: Q01DX009 (ip), vehicle: saline with Tween-80
[10] = dose: 50.0 mg/kg/injection, schedule: Q01DX009 (ip), vehicle: saline with Tween-80
[11] = dose: 100.0 mg/kg/injection, schedule: Q01DX009 (ip), vehicle: saline with Tween-80
[12] = dose: 240.0 mg/kg/injection, schedule: Q01DX005 (ip), vehicle: saline with Tween-80
[13] = dose: 50.0 mg/kg/injection, schedule: Q01DX009 (ip), vehicle: Klucel (hydroxypropylcellulose) (HPC)
[14] = dose: 50.0 mg/kg/injection, schedule: Q01DX009 (ip), vehicle: saline
[15] = dose: 100.0 mg/kg/injection, schedule: Q01DX009 (ip), vehicle: saline
[16] = dose: 6.25 mg/kg/injection, schedule: Q01DX009 (ip), vehicle: saline with Tween-80
[17] = dose: 12.5 mg/kg/injection, schedule: Q01DX009 (ip), vehicle: saline with Tween-80

Measured: T/C

CCN(CC)CCNC(=O)c1ccc(NCN2C(=O)NC(c3ccccc3)(c3ccccc3)C2=O)cc1
inactive: [1] 104 % of control | [2] 110 % of control

O=S(=O)(Nc1ccc(Cl)c(C(F)(F)F)c1)c1ccc(F)cc1
inactive: dose: 50.0 mg/kg/injection, schedule: Q01DX005 (ip), vehicle: saline with Tween-80 100 % of control | dose: 100.0 mg/kg/injection, schedule: Q01DX005 (ip), vehicle: saline with Tween-80 91 % of control | dose: 200.0 mg/kg/injection, schedule: Q01DX005 (ip), vehicle: saline with Tween-80 98 % of control

CNC(=O)OCC1=C(COC(=O)NC)C2OC1C(C(=O)OC)=C2c1ccc(Cl)cc1 (configuration not stated)
inactive: dose: 1.56 mg/kg/injection, schedule: Q01DX009 (ip), vehicle: distilled water + Tween-80 100 % of control | dose: 3.13 mg/kg/injection, schedule: Q01DX009 (ip), vehicle: distilled water + Tween-80 92 % of control | [3] 108 % of control | [4] 90 % of control and 94 % of control | [5] 88 % of control | [6] 88 % of control | [7] 88 % of control | [8] 101 % of control

CCN1C(=O)Nc2ccc(Cl)cc2C1(O)c1ccccc1 (configuration not stated)
inactive: [9] 95 % of control | [10] 102 % of control | [11] 99 % of control

ONC1CC(NO)CC(NO)C1 (configuration not stated)
inactive: dose: 100.0 mg/kg/injection, schedule: Q01DX001 (ip), vehicle: saline 117 % of control | dose: 200.0 mg/kg/injection, schedule: Q01DX001 (ip), vehicle: saline 110 % of control

Cc1cc(=O)[nH]c(=O)n1CCCN(C)CCCn1c(C)cc(=O)[nH]c1=O
inactive: [1] 99 % of control | [2] 103 % of control | [12] 102 % of control

CCCCCCCCCCC(=O)Nc1ncc([N+](=O)[O-])s1
inactive: [13] 96 % of control | dose: 100.0 mg/kg/injection, schedule: Q01DX009 (ip), vehicle: Klucel (hydroxypropylcellulose) (HPC) 100 % of control | dose: 200.0 mg/kg/injection, schedule: Q01DX009 (ip), vehicle: Klucel (hydroxypropylcellulose) (HPC) 102 % of control

C=C1CC[C@H]2C(C)=CC[C@@H]3[C@H](OC(=O)[C@H]3CN3CCN(c4ccc(C)c([N+](=O)[O-])c4)CC3)[C@@H]12
inactive: dose: 100.0 mg/kg/injection, schedule: Q04DX002 (ip), vehicle: saline 97 % of control | dose: 200.0 mg/kg/injection, schedule: Q04DX002 (ip), vehicle: saline 99 % of control | dose: 400.0 mg/kg/injection, schedule: Q04DX002 (ip), vehicle: saline 96 % of control

COC(=O)c1nc(N)nc(C(=O)OC)c1C(=O)Cc1ccccc1
inactive: [1] 100 % of control | [2] 103 % of control

C[Si](C)(C)ONC(=O)c1ccccc1
inactive: [3] 100 % of control | [4] 92 % of control | [5] 109 % of control | [6] 102 % of control | [7] 99 % of control | [8] 105 % of control

CC(=O)Oc1c(C)c(O)c(C(C)=O)c2c1C1(C)C(=O)C(C(C)=O)=C(O)C=C1O2 (configuration not stated)
inactive: dose: 6.25 mg/kg/injection, schedule: Q01DX009 (ip), vehicle: gum acacia 104 % of control and 107 % of control | dose: 12.5 mg/kg/injection, schedule: Q01DX009 (ip), vehicle: gum acacia 101 % of control and 106 % of control | dose: 25.0 mg/kg/injection, schedule: Q01DX009 (ip), vehicle: gum acacia 101 % of control and 110 % of control | dose: 50.0 mg/kg/injection, schedule: Q01DX009 (ip), vehicle: gum acacia 100 % of control and 104 % of control | dose: 100.0 mg/kg/injection, schedule: Q01DX009 (ip), vehicle: gum acacia 108 % of control and 110 % of control | dose: 200.0 mg/kg/injection, schedule: Q01DX009 (ip), vehicle: gum acacia 113 % of control and 119 % of control

C[N+]1(C)CCC(OC(=O)C(O)(c2ccccc2)C2CCCC2)C1 (configuration not stated)
inactive: dose: 12.5 mg/kg/injection, schedule: Q01DX009 (ip), vehicle: Klucel (hydroxypropylcellulose) (HPC) 95 % of control | dose: 25.0 mg/kg/injection, schedule: Q01DX009 (ip), vehicle: Klucel (hydroxypropylcellulose) (HPC) 97 % of control | dose: 25.0 mg/kg/injection, schedule: Q04DX003 (ip), vehicle: saline with Tween-80 105 % of control | [13] 89 % of control and 95 % of control | dose: 50.0 mg/kg/injection, schedule: Q04DX003 (ip), vehicle: saline with Tween-80 102 % of control | dose: 100.0 mg/kg/injection, schedule: Q04DX003 (ip), vehicle: saline with Tween-80 99 % of control

CCN=c1cc2oc3cc(NCC)c(C)cc3c(-c3ccccc3C(=O)OCC)c-2cc1C
inactive: dose: 0.4 mg/kg/injection, schedule: Q01DX005 (ip), vehicle: saline with Tween-80 110 % of control | dose: 0.8 mg/kg/injection, schedule: Q01DX005 (ip), vehicle: saline with Tween-80 116 % of control | dose: 1.6 mg/kg/injection, schedule: Q01DX005 (ip), vehicle: saline with Tween-80 119 % of control

CSc1nc(NCc2ccc(Cl)cc2)c2[nH]c(C)nc2n1
inactive: dose: 0.2 mg/kg/injection, schedule: Q01DX009 (ip), vehicle: saline with Tween-80 98 % of control and 101 % of control | dose: 0.39 mg/kg/injection, schedule: Q01DX009 (ip), vehicle: saline with Tween-80 101 % of control and 94 % of control | dose: 0.78 mg/kg/injection, schedule: Q01DX009 (ip), vehicle: saline with Tween-80 106 % of control and 93 % of control | dose: 1.56 mg/kg/injection, schedule: Q01DX009 (ip), vehicle: saline with Tween-80 99 % of control and 95 % of control

Clc1ccnc2ccc3ccccc3c12
inactive: [14] 107 % of control | [15] 100 % of control and 101 % of control | dose: 200.0 mg/kg/injection, schedule: Q01DX009 (ip), vehicle: saline 100 % of control and 92 % of control

CC(=O)[O][Hg][CH]1C2CC3C(C2OC(C)=O)C31 (configuration not stated)
inactive: [16] 105 % of control | [17] 112 % of control

CCn1c2ccccc2c2c3c(NCCCN(C)C)cc(C)nc3ccc21
inactive: dose: 5.5 mg/kg/injection, schedule: Q01DX009 (ip), vehicle: suspension in saline 93 % of control | dose: 11.0 mg/kg/injection, schedule: Q01DX009 (ip), vehicle: suspension in saline 97 % of control | dose: 22.0 mg/kg/injection, schedule: Q01DX009 (ip), vehicle: suspension in saline 97 % of control

O=C1C=CC(=O)C2=C1C1C3=C(C(=O)C=CC3=O)C2c2ccccc21
inactive: [10] 110 % of control | [11] 106 % of control | dose: 200.0 mg/kg/injection, schedule: Q01DX009 (ip), vehicle: saline with Tween-80 101 % of control

CCn1c(Cl)c(C=O)c2ccccc21
inactive: dose: 100.0 mg/kg/injection, schedule: Q01DX001 (ip), vehicle: Klucel (hydroxypropylcellulose) (HPC) 100 % of control | dose: 200.0 mg/kg/injection, schedule: Q01DX001 (ip), vehicle: Klucel (hydroxypropylcellulose) (HPC) 92 % of control | dose: 400.0 mg/kg/injection, schedule: Q01DX001 (ip), vehicle: Klucel (hydroxypropylcellulose) (HPC) 95 % of control

COc1ccc2c(c1)C=CC1OC(C(C)=O)(C(C)=O)C(C=O)=CN21 (configuration not stated)
inactive: [1] 92 % of control | [2] 89 % of control | [12] 98 % of control

C=C(NC(=O)C(C)NC(=O)OCc1ccccc1)C(=O)N1CCCC1C(=O)NC(C)C(=O)NC (configuration not stated) (Cbz-A[Dha]PA-NHMe; configuration not given here)
inactive: dose: 25.0 mg/kg/injection, schedule: Q01DX009 (ip), vehicle: saline 111 % of control | [14] 100 % of control | [15] 96 % of control

Cc1ccc(C[n+]2ccc3c([N+](=O)[O-])cccc3c2)cc1
inactive: [16] 112 % of control | [17] 113 % of control | [9] 114 % of control
